Source: ChEMBL document CHEMBL1155989, “Discovery of novel diarylketoxime derivatives as selective and orally active melanin-concentrating hormone 1 receptor antagonists” (Bioorg Med Chem Lett, 2009)

Experiments:
[1] = Metabolic stability in human liver microsomes assessed as compound remaining after 30 mins; type: ADME, Microsome; conditions: read-out: Stability
[2] = Metabolic stability in rat liver microsomes assessed as compound remaining after 30 mins; type: ADME, Microsome; conditions: read-out: Stability
[3] = Metabolic stability in mouse liver microsomes assessed as compound remaining after 30 mins; type: ADME, Microsome; conditions: read-out: Stability
[4] = Plasma clearance in Sprague-Dawley rat at 1 mg/kg, iv; type: ADME, organism-based; design: dose 1 mg/kg, route intravenous
[5] = Volume of distribution at steady state in Sprague-Dawley rat at 1 mg/kg, iv; type: ADME, organism-based; design: dose 1 mg/kg, route intravenous; conditions: in vivo, read-out: Vdss
[6] = Half life in Sprague-Dawley rat at 1 mg/kg, iv; type: ADME, organism-based; design: dose 1 mg/kg, route intravenous; conditions: in vivo
[7] = Cmax in Sprague-Dawley rat at 3 mg/kg, po; type: ADME, organism-based; design: dose 3 mg/kg, route oral; conditions: in vivo
Rattus norvegicus = assay: AUC (0 to infinity) in Sprague-Dawley rat at 3 mg/kg, po; type: ADME, organism-based, Plasma; design: time infinity, dose 3 mg/kg, route oral; conditions: in vivo
[8] = Oral bioavailability in Sprague-Dawley rat; type: ADME, organism-based; conditions: in vivo
[9] = Plasma concentration in Sprague-Dawley rat at 10 mg/kg, po after 2 hrs; type: ADME, organism-based; design: dose 10 mg/kg, route oral
Brain [10] = assay: Drug level in Sprague-Dawley rat brain at 10 mg/kg, po after 2 hrs; type: ADME, organism-based; design: dose 10 mg/kg, route oral; conditions: in vivo
[11] = Drug level in Sprague-Dawley rat cerebrospinal fluid at 10 mg/kg, po after 2 hrs; type: ADME, organism-based; design: dose 10 mg/kg, route oral; conditions: read-out: Drug uptake
[12] = Ratio of drug level in brain to plasma of Sprague-Dawley rat at 10 mg/kg, po after 2 hrs; type: ADME, organism-based; design: dose 10 mg/kg, route oral
[13] = Cmax in diet-induced obese C57BL/6J mouse at 10 mg/kg, po; type: ADME, organism-based; design: dose 10 mg/kg, route oral; conditions: in vivo
[14] = Tmax in diet-induced obese C57BL/6J mouse at 10 mg/kg, po; type: ADME, organism-based; design: dose 10 mg/kg, route oral; conditions: in vivo
[15] = AUC (0 to infinity) in diet-induced obese C57BL/6J mouse at 10 mg/kg, po; type: ADME, organism-based; design: time infinity, dose 10 mg/kg, route oral; conditions: plasma
[16] = Cmax in diet-induced obese C57BL/6J mouse at 30 mg/kg, po; type: ADME, organism-based; design: dose 30 mg/kg, route oral; conditions: in vivo
[17] = Tmax in diet-induced obese C57BL/6J mouse at 30 mg/kg, po; type: ADME, organism-based; design: dose 30 mg/kg, route oral; conditions: in vivo
[18] = AUC (0 to infinity) in diet-induced obese C57BL/6J mouse at 30 mg/kg, po; type: ADME, organism-based; design: time infinity, dose 30 mg/kg, route oral; conditions: plasma
[19] = Plasma concentration in diet-induced obese C57BL/6J mouse at 30 mg/kg, po after 24 hrs; type: ADME, organism-based; design: dose 30 mg/kg, route oral
Brain [20] = assay: Drug level in diet-induced obese C57BL/6J mouse brain at 30 mg/kg, po after 24 hrs; type: ADME, organism-based; design: dose 30 mg/kg, route oral; conditions: in vivo
[21] = Ratio of drug level in brain to plasma of diet-induced obese C57BL/6J mouse at 30 mg/kg, po after 24 hrs; type: ADME, organism-based; design: dose 30 mg/kg, route oral

`CCO/N=C(/c1ccc(F)c(F)c1)c1ccc(CN2CCC3(CC2)OCc2cc(=O)n(C)cc23)cn1` showed a remaining at 0.5 h [1] of 77%, a remaining at 0.5 h [2] of 84% and a remaining at 0.5 h [3] of 74%.

With `O=C(C(c1ccc(F)c(F)c1)n1cccn1)N(CCF)CCCN1CCC2(CC1)OCc1cc(F)ncc12` (centres undefined) the remaining at 0.5 h [1] was 12%, the remaining at 0.5 h [2] was 31% and the remaining at 0.5 h [3] was 22%.

With `Fc1cc2c(cn1)C1(CCN(Cc3ccc(Oc4ccc(F)c(F)c4)cc3)CC1)OC2` the remaining at 0.5 h [1] was 17%, the remaining at 0.5 h [2] was 4% and the remaining at 0.5 h [3] was 3%.

Molecule `CCO/N=C(/c1ccc(F)c(F)c1)c1ccc(CN2CCC3(CC2)OCc2cn(C)c(=O)cc23)cn1` has a remaining at 0.5 h [1] of 68%, a remaining at 0.5 h [2] of 71% and a remaining at 0.5 h [3] of 57%. The clearance [4] was 13 mL/min/kg, the Vd [5] was 1.6 L/kg and the half-life [6] was 1.4 h. The Cmax [7] was 1.85 µM, the AUC (Rattus norvegicus) was 6.57 µM·h and the bioavailability [8] was 87%. For the same molecule, the concentration at 2 h [9] was 4.5 µM, the Drug uptake (Brain [10]) was 2.2 nmol/g and the concentration at 2 h [11] was 0.13 µM. The Kp at 2 h [12] was 0.49, the Cmax [13] was 4.27 µM and the Tmax [14] was 2 h. The AUC(0-inf) [15] was 15.4 µM·h, the Cmax [16] was 15.6 µM and the Tmax [17] was 2 h. The AUC(0-inf) [18] was 90.7 µM·h, the concentration at 24 h [19] was 0.119 µM and the Drug uptake (Brain [20]) was 0.052 nmol/g. For the same molecule, the Kp at 24 h [21] was 0.43.

`CCO/N=C(/c1ccc(F)c(F)c1)c1ccc(CN2CCC3(CC2)OCc2cc(F)ncc23)cn1` gave a remaining at 0.5 h [1] of 0%, a remaining at 0.5 h [2] of 2% and a remaining at 0.5 h [3] of 11%.
